Data: patent US20230265151A1, “GIP/GLP1 CO-AGONIST COMPOUNDS” (priority 2020, published 2023)
Read-outs that look alike come from different tables or passages of the source. *1 amine or outer side, *2 acyl side, *3 side chain or, on linkers, in order; H or OH if unused. Where a SMILES comes first, the peptide text is derived from it. Side-chain parts run from the residue outwards. [ ]: non-standard residue; d: D form. The star is where a group is joined. Decanoyl(10-(4-HOOC-PhO)) = O=C(O)c1ccc(OCCCCCCCCCC(=O)*)cc1; αMePhe(2-F) = C[C@](N)(Cc1ccccc1F)C(=O)O; γGlu = O=C(O)[C@H](CCC(=O)[*:2])N[*:1]; αMeY = C[C@](N)(Cc1ccc(O)cc1)C(=O)O; αMeL = CC(C)C[C@](C)(N)C(=O)O; Orn = NCCC[C@H](N)C(=O)O; AEEA = NCCOCCOCC(=O)O; Aib = CC(C)(N)C(=O)O

Experiments:
Assay type in all cases: cell-based
[1] = target: T1, hGIPR (Homo sapiens, UniProt P48546); test: Functional cAMP formation (HTRF) in HEK-293 clonal cells expressing hGIPR, 0.1% bovine casein, without or with 1.0% human serum albumin; conditions: for EC50: geometric mean
T1 construct: expressed in transfected cells
T1 sequence (P48546 22-466): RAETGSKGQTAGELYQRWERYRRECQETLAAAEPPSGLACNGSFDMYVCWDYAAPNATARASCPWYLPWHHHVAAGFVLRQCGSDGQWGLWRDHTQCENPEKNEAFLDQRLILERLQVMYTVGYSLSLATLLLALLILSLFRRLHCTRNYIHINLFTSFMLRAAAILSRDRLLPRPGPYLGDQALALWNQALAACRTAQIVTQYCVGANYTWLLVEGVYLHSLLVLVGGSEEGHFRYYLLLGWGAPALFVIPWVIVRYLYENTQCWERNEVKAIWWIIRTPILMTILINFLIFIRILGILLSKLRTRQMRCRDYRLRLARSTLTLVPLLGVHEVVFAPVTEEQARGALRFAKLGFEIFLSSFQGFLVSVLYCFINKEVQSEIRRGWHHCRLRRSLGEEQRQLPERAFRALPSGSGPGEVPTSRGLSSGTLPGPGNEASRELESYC
In short: (§1)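 Readings of the HTRF 665/620 nm ratio, which falls as cAMP rises, were converted to nM cAMP using a standard curve after 30 min peptide exposure at 37° C.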

[2] = target: T2, hGCGR (Homo sapiens, UniProt P47871); test: Functional cAMP formation (HTRF) in HEK-293 clonal cells expressing hGCGR, 0.1% bovine casein, without or with 1.0% human serum albumin
T2 construct: expressed in transfected cells
In short: as §1

[3] = target: hGLP-1R (Homo sapiens, UniProt P43220); test: Functional cAMP formation (HTRF) in HEK-293 clonal cells expressing hGLP-1R, 0.1% bovine casein, without or with 1.0% human serum albumin; set-up: expressed in transfected cells; conditions: for EC50: geometric mean; for Emax: percent of maximal response to GLP-1(7-36)NH2
In short: as §1

[4] = HEK293, read-out: hGIPR Emax, % ± SEM, 0.1% bovine casein and 1.0% human serum albumin, 37° C., percent of maximal response to GIP(1-42)NH2
[5] = hGCGR EC50, nM (SEM, n), 0.1% bovine casein and 1.0% human serum albumin, 37° C., geometric mean
[6] = hGIPR EC50, nM (SEM, n), cAMP, 37° C., 0.1% bovine casein (no human serum albumin)
[7] = hGCGR EC50, nM (SEM, n), cAMP, 37° C., 0.1% bovine casein (no human serum albumin), geometric mean

Chain of hGLP-1R (P43220 24-463): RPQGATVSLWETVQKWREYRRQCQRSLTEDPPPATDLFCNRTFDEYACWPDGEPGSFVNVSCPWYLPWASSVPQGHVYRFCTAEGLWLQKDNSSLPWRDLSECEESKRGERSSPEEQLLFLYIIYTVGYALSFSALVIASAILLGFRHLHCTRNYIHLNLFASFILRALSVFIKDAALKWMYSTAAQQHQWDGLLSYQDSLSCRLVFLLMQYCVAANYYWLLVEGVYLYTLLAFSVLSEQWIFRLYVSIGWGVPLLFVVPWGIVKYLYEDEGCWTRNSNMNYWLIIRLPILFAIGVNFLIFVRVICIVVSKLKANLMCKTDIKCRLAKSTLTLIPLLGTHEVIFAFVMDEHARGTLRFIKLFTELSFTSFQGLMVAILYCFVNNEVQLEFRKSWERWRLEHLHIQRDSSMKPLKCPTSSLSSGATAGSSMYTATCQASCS
T2 sequence (P47871 26-477): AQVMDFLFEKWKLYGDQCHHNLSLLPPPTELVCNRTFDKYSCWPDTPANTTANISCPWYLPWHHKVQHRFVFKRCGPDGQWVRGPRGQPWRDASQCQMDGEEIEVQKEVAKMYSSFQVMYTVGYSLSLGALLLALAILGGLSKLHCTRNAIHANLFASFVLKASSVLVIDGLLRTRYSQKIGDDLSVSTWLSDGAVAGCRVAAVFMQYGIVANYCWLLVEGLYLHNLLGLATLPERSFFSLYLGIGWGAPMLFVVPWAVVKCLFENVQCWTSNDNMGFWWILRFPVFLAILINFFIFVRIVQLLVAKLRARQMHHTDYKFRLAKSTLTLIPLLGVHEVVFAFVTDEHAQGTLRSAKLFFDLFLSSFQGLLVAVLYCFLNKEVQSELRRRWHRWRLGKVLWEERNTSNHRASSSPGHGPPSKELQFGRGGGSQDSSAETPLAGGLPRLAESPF

Compound: CC[C@H](C)[C@H](NC(=O)[C@H](CC(C)C)NC(=O)[C@](C)(Cc1ccc(O)cc1)NC(=O)[C@H](CCCCNC(=O)COCCOCCNC(=O)COCCOCCNC(=O)CCCCCCCCCCCCC(=O)O)NC(=O)[C@@H](NC(=O)[C@H](Cc1ccccc1)NC(=O)[C@H](CCC(=O)O)NC(=O)C(C)(C)NC(=O)[C@H](CCC(N)=O)NC(=O)[C@H](C)NC(=O)[C@H](CCCCNC(=O)COCCOCCNC(=O)COCCOCCNC(=O)CCCCCCCCCCCCC(=O)O)NC(=O)[C@H](CCCN)NC(=O)[C@H](CC(=O)O)NC(=O)[C@H](CC(C)C)NC(=O)[C@](C)(CC(C)C)NC(=O)[C@@H](NC(=O)[C@H](CO)NC(=O)[C@H](Cc1ccncc1)NC(=O)[C@H](CC(=O)O)NC(=O)[C@H](CO)NC(=O)[C@@H](NC(=O)[C@](C)(Cc1ccccc1F)NC(=O)[C@@H](NC(=O)CNC(=O)[C@H](CCC(=O)O)NC(=O)C(C)(C)NC(=O)[C@@H](N)Cc1ccc(O)cc1)[C@@H](C)O)[C@@H](C)O)[C@@H](C)CC)[C@@H](C)CC)C(=O)N[C@@H](CCC(=O)O)C(=O)NCC(=O)NCC(=O)N1CCC[C@H]1C(=O)N[C@@H](CO)C(=O)N[C@@H](CO)C(=O)NCC(=O)N[C@@H](C)C(=O)N1CCC[C@H]1C(=O)N1CCC[C@H]1C(=O)N1CCC[C@H]1C(=O)N[C@@H](CO)C(N)=O [Example 81]
- Emax [1, 4]: 97.4%
- EC50 ([1]; hGIPR EC50, nM (SEM, n), 0.1% bovine casein and 1.0% human serum albumin, 37° C.): 0.531 nM
- EC50 ([1]; hGIPR EC50, nM (SEM, n), cAMP, incubated at 37° C., 0.1% bovine casein (no human serum albumin)): 0.0114 nM
- EC50 [2, 5]: > 9950 nM
- EC50 ([2]; hGCGR EC50, nM (SEM, n), cAMP, incubated at 37° C., 0.1% bovine casein (no human serum albumin), geometric mean): > 9950 nM
- EC50 ([3]; hGLP-1R EC50, nM (SEM, n), 0.1% bovine casein and 1.0% human serum albumin, 37° C.): 3.47 nM
- EC50 ([3]; hGLP-1R EC50, nM (SEM, n), cAMP, incubated at 37° C., 0.1% bovine casein (no human serum albumin)): 0.176 nM

Compound: CC[C@H](C)[C@H](NC(=O)[C@H](CCCN)NC(=O)[C@H](CC(=O)O)NC(=O)[C@H](CC(C)C)NC(=O)[C@](C)(CC(C)C)NC(=O)[C@@H](NC(=O)C(C)(C)NC(=O)[C@H](Cc1ccc(O)cc1)NC(=O)[C@H](CC(=O)O)NC(=O)[C@H](CO)NC(=O)[C@@H](NC(=O)[C@](C)(Cc1ccccc1F)NC(=O)[C@@H](NC(=O)CNC(=O)[C@H](CCC(=O)O)NC(=O)C(C)(C)NC(=O)[C@@H](N)Cc1ccc(O)cc1)[C@@H](C)O)[C@@H](C)O)[C@@H](C)CC)C(=O)N[C@@H](C)C(=O)N[C@@H](CCC(N)=O)C(=O)NC(C)(C)C(=O)N[C@@H](CCCCNC(=O)COCCOCCNC(=O)CC[C@H](NC(=O)CCCCCCCCCOc1ccc(C(=O)O)cc1)C(=O)O)C(=O)N[C@@H](Cc1ccccc1)C(=O)N[C@H](C(=O)N[C@H](CCC(=O)O)C(=O)N[C@@](C)(Cc1ccc(O)cc1)C(=O)N[C@@H](CC(C)C)C(=O)N[C@H](C(=O)N[C@@H](CCC(=O)O)C(=O)NCC(=O)NCC(=O)N1CCC[C@H]1C(=O)N[C@@H](CO)C(=O)N[C@@H](CO)C(=O)NCC(=O)N[C@@H](C)C(=O)N1CCC[C@H]1C(=O)N1CCC[C@H]1C(=O)N1CCC[C@H]1C(=O)N[C@@H](CO)C(=O)N[C@@H](CCCCNC(=O)COCCOCCNC(=O)CC[C@H](NC(=O)CCCCCCCCCOc1ccc(C(=O)O)cc1)C(=O)O)C(N)=O)[C@@H](C)CC)[C@@H](C)CC [Example 377] (H-Y[Aib]EGT[αMePhe(2-F)]TSDY[Aib]I[αMeL]LD[Orn]IAQ[Aib]K([AEEA-γGlu-Decanoyl(10-(4-HOOC-PhO))])FI[dE][αMeY]LIEGGPSSGAPPPSK([AEEA-γGlu-Decanoyl(10-(4-HOOC-PhO))])-NH2)
- Emax ([1]; HEK293, read-out: hGIPR Emax, % ± SEM, cAMP, 37° C., 0.1% bovine casein and 1.0% human serum albumin, percent of maximal response to GIP(1-42)NH2): 79.4%
- Emax ([1]; HEK293, read-out: hGIPR Emax, % ± SEM, cAMP, 37° C., 0.1% bovine casein, percent of maximal response to GIP(1-42)NH2, arithmetic mean): 92.8%
- EC50 [1, 6]: 0.0205 nM
- EC50 [2, 7]: > 9950 nM
- EC50 ([2]; hGCGR EC50, nM (SEM, n), cAMP, 37° C., 0.1% bovine casein and 1.0% human serum albumin, geometric mean (SEM, n)): > 9950 nM
- Emax ([3]; HEK293, read-out: hGLP-1R Emax, % ± SEM, cAMP, 37° C., 0.1% bovine casein and 1.0% human serum albumin): 110%
- Emax ([3]; HEK293, read-out: hGLP-1R Emax, % ± SEM, cAMP, 37° C., 0.1% bovine casein, arithmetic mean): 100%
- EC50 ([3]; hGLP-1R EC50, nM (SEM, n), cAMP, 37° C., 0.1% bovine casein (no human serum albumin)): 0.356 nM

Compound: CC[C@H](C)[C@H](NC(=O)[C@H](CC(C)C)NC(=O)[C@](C)(Cc1ccc(O)cc1)NC(=O)[C@@H](CCC(=O)O)NC(=O)[C@@H](NC(=O)[C@H](Cc1ccccc1)NC(=O)[C@H](CCC(=O)O)NC(=O)C(C)(C)NC(=O)[C@H](CCC(N)=O)NC(=O)[C@H](C)NC(=O)[C@H](CCCCNC(=O)COCCOCCNC(=O)COCCOCCNC(=O)CC[C@H](NC(=O)CCCCCCCCCOc1ccc(C(=O)O)cc1)C(=O)O)NC(=O)[C@H](CCCN)NC(=O)[C@H](CC(=O)O)NC(=O)[C@H](CC(C)C)NC(=O)[C@](C)(CC(C)C)NC(=O)[C@@H](NC(=O)[C@H](CO)NC(=O)[C@H](Cc1ccncc1)NC(=O)[C@H](CC(=O)O)NC(=O)[C@H](CO)NC(=O)[C@@H](NC(=O)[C@](C)(Cc1ccccc1F)NC(=O)[C@@H](NC(=O)CNC(=O)[C@H](CCC(=O)O)NC(=O)C(C)(C)NC(=O)[C@@H](N)Cc1ccc(O)cc1)[C@@H](C)O)[C@@H](C)O)[C@@H](C)CC)[C@@H](C)CC)C(=O)N[C@@H](CCC(=O)O)C(=O)NCC(=O)NCC(=O)N1CCC[C@H]1C(=O)N[C@@H](CO)C(=O)N[C@@H](CO)C(=O)NCC(=O)N[C@@H](C)C(=O)N1CCC[C@H]1C(=O)N1CCC[C@H]1C(=O)N1CCC[C@H]1C(=O)N[C@@H](CO)C(=O)N[C@@H](CCCCNC(=O)COCCOCCNC(=O)COCCOCCNC(=O)CC[C@H](NC(=O)CCCCCCCCCOc1ccc(C(=O)O)cc1)C(=O)O)C(N)=O [Example 273]
- Emax [1, 4]: 88.4%
- EC50 [1, 6]: 0.0166 nM
- EC50 [2, 5]: > 9950 nM
- EC50 [2, 7]: > 9950 nM
- Emax ([3]; HEK293, read-out: hGLP-1R Emax, % ± SEM, 0.1% bovine casein and 1.0% human serum albumin, 37° C.): 90.5%

Compound: CC[C@H](C)[C@H](NC(=O)[C@H](CC(C)C)NC(=O)[C@](C)(Cc1ccc(O)cc1)NC(=O)[C@@H](CCC(=O)O)NC(=O)[C@@H](NC(=O)[C@H](Cc1ccccc1)NC(=O)[C@H](CCC(=O)O)NC(=O)C(C)(C)NC(=O)[C@H](CCC(N)=O)NC(=O)[C@H](C)NC(=O)[C@H](CCCCNC(=O)COCCOCCNC(=O)COCCOCCNC(=O)CC[C@H](NC(=O)CCCCCCCCCCCCC(=O)O)C(=O)O)NC(=O)[C@H](CCCN)NC(=O)[C@H](CC(=O)O)NC(=O)[C@H](CC(C)C)NC(=O)[C@](C)(CC(C)C)NC(=O)[C@@H](NC(=O)[C@H](CO)NC(=O)[C@](C)(Cc1ccccc1F)NC(=O)[C@H](CC(=O)O)NC(=O)[C@H](CO)NC(=O)[C@@H](NC(=O)[C@](C)(Cc1ccccc1F)NC(=O)[C@@H](NC(=O)CNC(=O)[C@H](CCC(=O)O)NC(=O)C(C)(C)NC(=O)[C@@H](N)Cc1ccc(O)cc1)[C@@H](C)O)[C@@H](C)O)[C@@H](C)CC)[C@@H](C)CC)C(=O)N[C@@H](CCC(=O)O)C(=O)NCC(=O)NCC(=O)N[C@@H](CCCCNC(=O)COCCOCCNC(=O)COCCOCCNC(=O)CC[C@H](NC(=O)CCCCCCCCCCCCC(=O)O)C(=O)O)C(=O)N[C@@H](CO)C(=O)N[C@@H](CO)C(=O)NCC(=O)N[C@@H](C)C(=O)N1CCC[C@H]1C(=O)N1CCC[C@H]1C(=O)N1CCC[C@H]1C(=O)N[C@@H](CO)C(N)=O [Example 87]
- EC50 ([1]; 0.1% bovine casein and 1.0% human serum albumin, 37° C., read-out: hGIPR EC50, nM (SEM, n)): 4.84 nM
- Emax ([1]; HEK293, 0.1% bovine casein and 1.0% human serum albumin, 37° C., percent of maximal response to GIP(1-42)NH2, read-out: hGIPR Emax, % ± SEM): 89.2%
- Emax ([1]; HEK293, percent of maximal response to GIP(1-42)NH2, 37° C., 0.1% bovine casein, arithmetic mean, read-out: hGIPR Emax, % ± SEM): 84.7%
- EC50 ([2]; 0.1% bovine casein and 1.0% human serum albumin, 37° C., geometric mean, read-out: hGCGR EC50, nM (SEM, n)): > 9950 nM
- EC50 ([2]; cAMP, incubated at 37° C., 0.1% bovine casein (no human serum albumin), geometric mean, read-out: hGCGR EC50, nM (SEM, n)): > 9950 nM
- EC50 ([3]; cAMP, incubated at 37° C., 0.1% bovine casein (no human serum albumin), read-out: hGLP-1R EC50, nM (SEM, n)): 1.34 nM
